# Measured values taken from patent US20050019425A1, “Composition and method” (priority 2001, published 2005).
# What was measured:
# Hair growth of Beagles = assay: Hair growth measurement in adult beagles fed diets with various levels of selenium; format: in vivo, dog (Beagle)
# Text: Adult beagles of both male and females are used. They are between 1.2 and 3.7 years of age at the start of the experiment.
# (§1) Study Design: Thirty-six adult dogs are divided into six groups of six dogs in each group based on their age, gender and body condition score so that the averages of those three criteria are similar among groups. All dogs are given the basal diet for three weeks (pre-treatment period) before they are allocated to one of the experimental diets. The third week of the pre-treatment period is considered as week 0 of the study. Hair growth is measured in weeks 0, 11 and 22 of the study using the method described below. Dogs are fed with the experimental diets for 24 weeks.
# (§2) A torula yeast basal diet is used. The basal diet is nutritionally complete and balanced for an adult dog except for selenium. Different amounts of selenium (as selenomethionine) are added into the basal diet to form six experimental diets which contain 0, 0.05, 0.1, 0.5, 1 or 5 mg selenium/kg diet dry matter, respectively. Selenium concentrations in the experimental diets are confirmed by chemical analyses. The analyzed dietary selenium concentrations were 0.034, 0.085, 0.123, 0.527, 1.025 and 5.045 mg/kg dry matter, respectively.
# Hair Growth Measurement: Hairs in an area of […] on the left side of the body above the hind leg and about 3 cm away from the spinal are clipped with an electronic clipper (Oster Pro™ Model 78400-01A, blade size: 40.1 mm, Oster Elite™). The hair is cut as close to the skin as possible. A tattoo dot of about 1 mm in diameter is made in the center of the clipped area using a tattoo marker (Spaulding Special Electric Tattoo Marker, Model SSEMK). Hair growth is measured by taking photographs from the same clipped area twice using the tattoo dot as a marker. The first photograph is taken right after the clipping and the second photograph four days later. A Polaroid close-up camera (CU-5) and Polaroid 665 films are used to take photographs. A glass slide is attached to the front frame of the camera to press hairs to the skin to minimize errors caused by the angle formed between standing hair and the skin. The image is magnified three times by the camera. Same exposure conditions are used for all dogs in the study. On each day of photograph shooting, a photograph is also taken of a ruler with clear markers under the same conditions and serves as a reference. After exposure, both prints and negatives of the films are treated according to the use directions. The negative films provide sharp and clear images of hairs and are used for hair growth measurement. The negative films are scanned (EPSON Expression 836XL) into a computer. Afterwards, the length of primary hairs in the film is measured using an image analyzing software (BioScan Optimas). The difference of the average hair lengths between the first and the second photographs from the same dog is the hair growth during the four-day period.
# [1] = Clinical signs, food intake, body weight, blood and thyroid hormone measurements in dogs during the 24-week feeding study; format: in vivo, dog (Beagle); details: diets with 0 to 5 mg added selenium/kg, study period 24 weeks
# Protocol: as §1, §2
structure (smiles),measurement,setting,value
"C[Se]CC[C@H](N)C(=O)O [selenium, selenomethionine]",Hair growth,"Hair growth of Beagles; dietary Se 0.034 mg/kg dry matter (0 added), Week 0 (pre-treatment, basal diet)",0.21 mm/day
same,Hair growth,"Hair growth of Beagles; dietary Se 0.034 mg/kg dry matter (0 added), Week 11",0.12 mm/day
same,Hair growth,"Hair growth of Beagles; dietary Se 0.034 mg/kg dry matter (0 added), Week 22",0.12 mm/day
same,Hair growth,"Hair growth of Beagles; dietary Se 0.085 mg/kg dry matter (0.05 added), Week 0 (pre-treatment, basal diet)",0.18 mm/day
same,Hair growth,"Hair growth of Beagles; dietary Se 0.085 mg/kg dry matter (0.05 added), Week 11",0.15 mm/day
same,Hair growth,"Hair growth of Beagles; dietary Se 0.085 mg/kg dry matter (0.05 added), Week 22",0.11 mm/day
same,Hair growth,"Hair growth of Beagles; dietary Se 0.123 mg/kg dry matter (0.1 added), Week 0 (pre-treatment, basal diet)",0.13 mm/day
same,Hair growth,"Hair growth of Beagles; dietary Se 0.123 mg/kg dry matter (0.1 added), Week 11",0.26 mm/day
same,Hair growth,"Hair growth of Beagles; dietary Se 0.123 mg/kg dry matter (0.1 added), Week 22",0.20 mm/day
same,Hair growth,"Hair growth of Beagles; dietary Se 0.527 mg/kg dry matter (0.5 added), Week 0 (pre-treatment, basal diet)",0.15 mm/day
same,Hair growth,"Hair growth of Beagles; dietary Se 0.527 mg/kg dry matter (0.5 added), Week 11",0.22 mm/day
same,Hair growth,"Hair growth of Beagles; dietary Se 0.527 mg/kg dry matter (0.5 added), Week 22",0.23 mm/day
same,Hair growth,"Hair growth of Beagles; dietary Se 1.025 mg/kg dry matter (1 added), Week 0 (pre-treatment, basal diet)",0.18 mm/day
same,Hair growth,"Hair growth of Beagles; dietary Se 1.025 mg/kg dry matter (1 added), Week 11",0.26 mm/day
same,Hair growth,"Hair growth of Beagles; dietary Se 1.025 mg/kg dry matter (1 added), Week 22",0.20 mm/day
same,Hair growth,"Hair growth of Beagles; dietary Se 5.045 mg/kg dry matter (5 added), Week 0 (pre-treatment, basal diet)",0.20 mm/day
same,Hair growth,"Hair growth of Beagles; dietary Se 5.045 mg/kg dry matter (5 added), Week 11",0.14 mm/day
same,Hair growth,"Hair growth of Beagles; dietary Se 5.045 mg/kg dry matter (5 added), Week 22",0.13 mm/day
same,Effect on hair growth of dogs (conclusion),Hair growth of Beagles; dietary selenium concentrations from 0.1 to about 4.5 mg selenium/kg diet,maximize hair growth of dogs
same,Rate of hair growth compared between diet groups,"Hair growth of Beagles; diets containing 0.1, 0.5 or 1 mg selenium/kg vs 0, 0.05 or 5 mg selenium/kg, week 11 and 22",significantly (p<0.05) higher rate of hair growth
same,Difference in hair growth among groups,Hair growth of Beagles; week 0 (pre-treatment),no difference in hair growth among groups
same,Average food intake and body weights,[1],not affected by the dietary treatments
same,"Blood CBC and chemistry measurements, serum total thyroxine and 3,5,3'-triiodothyronine",[1],within the normal ranges
